Assay results taken from patent US9815854B2, “3-(3H-imidazo[4,5-B]pyridin-2-yl)-1H-pyrazolo[3,4-C]pyridine and therapeutic uses thereof” (Samumed, LLC, priority 2014, dated 2017).

Key:
[1] = test system: primary human fibroblasts derived from IPF patients (LL29 cells); assay: Inhibition of the fibrotic process in TGF-β1-treated primary human fibroblasts from IPF patients (αSMA staining); format: cell-based; details: Fibroblast, 96 h, TGF-β1 20 ng/mL, 4 days, read-out: Inhibition of fibrosis EC50
Source text: The above synthesized compounds were screened using primary human fibroblasts (derived from IPF patients) treated with TGF-β1 to determine their ability to inhibit the fibrotic process.
Human Fibroblast Celt Culture: Primary human fibroblasts derived from IPF patients (LL29 cells) [^1Xiaoqiu Liu, et.al., “Fibrotic Luna Fibroblasts Show Blunted Inhibition by cAMP Due to Deficient cAMP Response Element-Binding Protein Phosphorylation”, Journal of Pharmacology and Experimental Therapeutics (2005), 315(2), 678-687; ^2Watts, K. L., et.al., “RhoA signaling modulates cyclin D1 expression in human lung fibroblasts; implications for idiopathic pulmonary fibrosis”, Respiratory Research (2006), 7(1), 88] were obtained from American Type Culture Collection (ATCC) and expanded in F12 medium supplemented with 15% Fetal Bovine Serum and Penicillin/Streptomycin.
Compound Screening: Each compound was dissolved in DMSO as a 10 mM stock and used to prepare compound source plates. Serial dilution (1:2, 11-point dose-response curves from 10 μM to […]) and compound transfer was performed using the ECHO 550 (Lahcyte, Sunnyvale, Calif.) into 384-well clear bottom assay plates (Greiner Bio-One) with appropriate DMSO backfill fhr a final DMSO concentration of 0.1%. LL29 cells were plated at 1,500 cells/well in 80 μl/well F12 medium supplemented with 1% Fetal Bovine Serum. One hour after addition of the cells. TGF-β1 (Peprotech; 20 ng/mL) was added to the plates to induce fibrosis (ref. 1 and 2 above), Wells treated with TGF-β1 and containing DMSO were used as controls. Cells were incubated at 37° C. and 5% CO2 for 4 days. Following incubation for 4 days, SYTOX green nucleic acid stain (Life Technologies [Thermo Fisher Scientific]) was added to the wells at a final concentration of 1 uM and incubated at room temperature for 30 min. Cells were then fixed using 4% formaldehyde (Electron Microscopy Sciences), washed 3 times with PBS followed by blocking and penneabilization using 3% Bovine Serum Albumin (BSA; Sigma) and 0.3% Triton X-100 (Sigma) in PBS. Cells were then stained with antibody specific to α-smooth muscle actin (αSMA; Abeam) (ref 1 and 2 above) in 3% Bovine Serum Albumin (BSA; Sigma) and 0.3% Triton X-100 (Sigma) in PBS, and incubated overnight at 4° C. Cells were then washed 3 times with PBS, followed by incubation with Alexa Flor-647 conjugated secondary antibody (Life Technologies [Thermo Fisher Scientific]) and DAPI at room temperature for 1 hour, Cells were then washed 3 times with PBS and plates were sealed for imaging. αSMA staining was imaged by excitation at 630 nm and emission at 665 nm and quantified using the Compartmental Analysis program on the CellInsight CX5 (Thermo Scientific). Dead or apoptotic cells were excluded from analysis based on positive SYTOX green staining. % of total cells positive for αSMA were counted in each well and normalized to the average of 11 wells treated with TGF-β1 on the same plate using Dotmatics' Studies Software. The normalized averages (fold change over untreated) of 3 replicate wells for each compound concentration were used to create dose-responses curves and EC50 values were calculated using non-linear regression curve fit in the Dotmatics' Studies Software. The EC50 values are reported.

[2] = test system: Wnt activity (Sp5-Luc reporter, TCF/LEF binding sites) in SW480 colon carcinoma cells; assay: Sp5-Luc Wnt reporter gene screening assay in SW480 colon carcinoma cells; format: cell-based, human; details: Homo sapiens
Source text: The screening assay for Wnt activity is described as follows. Reporter cell lines can be generated by stably transducing cancer cell lines (e.g., colon cancer) or primary cells (e.g., IEC-6 intestinal cells) with a lentiviral construct that includes a Wnt-responsive promoter driving expression of the firefly luciferase gene.
SW480 colon carcinoma cells were transduced with a lentiviral vector expressing luciferase with a human Sp5 promoter consisting of a sequence of eight TCF/LEF binding sites. SW480 cells stably expressing the Sp5-Luc reporter gene and a hygromycin resistance gene were selected by treatment with 150 μg/ml of hygroinycin for 7 days. These stably transduced SW480 cells were expanded in cell culture and used for all further screening activities. For Sp5-Luc reporter gene assays, the cells were plated at 10,000 cells/well in 96-well plates with growth medium containing 10% fetal calf serum and incubated overnight at 37° C. and 5% CO2. Each compound was dissolved in DMSO as a 10 mM stock in standard j-vials and used to prepare compound source plates in dose-response format with 3-fold serial dilutions and a 10 mM top concentration. Compound transfer from serially diluted source plates to assay plates containing the cells was accomplished using a pintool (Multimek 96, Beckman equipped with V&P Scientific FP1S50H pins) based liquid handling protocol. This protocol used a slotted pin to transfer 50 nl of compound from a source plate well to an assay plate well containing 50 μl of cells in growth medium. […] Control wells received 50 nl of DMSO treatment for nommlization and calculating IC50 values. The treated cells were incubated at 37° C. and 5% CO2 for an additional forty-two hours. Following incubation, the growth medium was removed and 50 μl of BrightGlo luminescence reagent (Promega) was added to each well of the 96-well assay plates. The plates were placed on an orbital shaker for 5 min and then luminescence was quantified on the Victor3 (Perkin Elmer) plate reader. Readings were normalized to DMSO only treated cells, and normalized activities were utilized for IC50 calculations using the dose-response log (inhibitor) vs. response—variable slope (four parameters) nonlinear regression feature available in GraphPad Prism 5.0 or 6.0.

Q: What does the source list for `O=C(Nc1cncc(-c2cc3c(-c4nc5c(-c6ccccc6F)ccnc5[nH]4)n[nH]c3cn2)c1)C1CCCC1` [Compound 73, N-(5-(3-(7-(2-Fluorophenyl)-3H-imidazo[4,5-b]pyridin-2-yl)-1H-pyrazolo[3,4-c]pyridin-5-yl)pyridin-3-yl)cyclopentanecarboxamide]?
A: EC50 [1]: 324 nM; IC50 [2]: 36.9 nM

Q: `O=C(Nc1cncc(-c2cc3c(-c4nc5c(N6CCCCC6)ccnc5[nH]4)n[nH]c3cn2)c1)C1CC1` [Compound 175, N-(5-(3-(7-(Piperidin-1-yl)-3H-imidazo[4,5-b]pyridin-2-yl)-1H-pyrazolo[3,4-c]pyridin-5-yl)pyridin-3-yl)cyclopropanecarboxamide] was tested. Which EC50 [1] did it give?
A: 3930 nM

Q: What about the IC50 [2] of the same compound?
A: 155 nM

Q: `CCC(=O)Nc1cncc(-c2cc3c(-c4nc5c(-c6cccs6)ccnc5[nH]4)n[nH]c3cn2)c1` [Compound 313] was tested. Which EC50 [1] did it give?
A: 39 nM

Q: What about the IC50 [2] of the same compound?
A: 71.7 nM

Q: With `Cc1ccc(-c2ccnc3[nH]c(-c4n[nH]c5cnc(-c6cncc(N)c6)cc45)nc23)s1` [Compound 367, 5-(3-(7-(5-Methylthiophen-2-yl)-3H-imidazo[4,5-b]pyridin-2-yl)-1H-pyrazolo[3,4-c]pyridin-5-yl)pyridin-3-amine] as the compound, how does the EC50 [1] read?
A: ≤ 9 nM

Q: What about the IC50 [2] of the same compound?
A: 22.6 nM

Q: For `Fc1ccc(-c2ccnc3[nH]c(-c4n[nH]c5cnc(-c6cncnc6)cc45)nc23)cc1` [Compound 52, 3-(7-(4-Fluorophenyl)-3H-imidazo[4,5-b]pyridin-2-yl)-5-(pyrimidin-5-yl)-1H-pyrazolo[3,4-c]pyridine], which EC50 [1] is on record?
A: 259 nM

Q: What about the IC50 [2] of the same compound?
A: 65.3 nM

Q: What does the source list for `CN(C)c1cncc(-c2cc3c(-c4nc5c(-c6cccc(F)c6)ccnc5[nH]4)n[nH]c3cn2)c1` [Compound 7, 5-(3-(7-(3-Fluorophenyl)-3H-imidazo[4,5-b]pyridin-2-yl)-1H-pyrazolo[3,4-c]pyridin-5-yl)-N,N-dimethylpyridin-3-amine]?
A: EC50 [1]: 406 nM; IC50 [2]: 85.4 nM

Q: Which EC50 [1] does the source give for `CS(=O)(=O)NCc1cc(F)cc(-c2ccnc3[nH]c(-c4n[nH]c5cnc(-c6cncc(CNCc7ccccc7)c6)cc45)nc23)c1` [Compound 439, N-(3-(2-(5-(5-((Benzylamino)methyl)pyridin-3-yl)-1H-pyrazolo[3,4-c]pyridin-3-yl)-3H-imidazo[4,5-b]pyridin-7-yl)-5-fluorobenzyl)methanesulfonamide] here?
A: ≤ 9 nM

Q: And the IC50 [2]?
A: > 10000 nM

Q: What does the source list for `COc1cc(F)cc(-c2ccnc3[nH]c(-c4n[nH]c5cnc(-c6cncc(NC(=O)CC(C)C)c6)cc45)nc23)c1` [Compound 1394, N-(5-(3-(7-(3-Fluoro-5-methoxyphenyl)-3H-imidazo[4,5-b]pyridin-2-yl)-1H-pyrazolo[3,4-c]pyridin-5-yl)pyridin-3-yl)-3-methyl butanamide]?
A: EC50 [1]: 495 nM; IC50 [2]: > 10000 nM

Q: How did the EC50 [1] turn out when `CN1CCN(c2ccnc3[nH]c(-c4n[nH]c5cnc(-c6cncc(CN7CCCCC7)c6)cc45)nc23)CC1` [Compound 223, 3-(7-(4-Methylpiperazin-1-yl)-3H-imidazo[4,5-b]pyridin-2-yl)-5-(5-(piperidin-1-ylmethyl)pyridin-3-yl)-1H-pyrazolo[3,4-c]pyridine] was run?
A: ≤ 9 nM

Q: And the IC50 [2]?
A: 5080 nM

Q: Which EC50 [1] does the source give for `O=C(Nc1cncc(-c2cc3c(-c4nc5cccnc5[nH]4)n[nH]c3cn2)c1)C1CCCCC1` [Compound 256, N-(5-(3-(3H-Imidazo[4,5-b]pyridin-2-yl)-1H-pyrazolo[3,4-c]pyridin-5-yl)pyridin-3-yl)cyclohexanecarboxamide] here?
A: ≥ 9990 nM

Q: What about the IC50 [2] of the same compound?
A: 796 nM

Q: For `CC(C)(C)CC(=O)Nc1cncc(-c2cc3c(-c4nc5cccnc5[nH]4)n[nH]c3cn2)c1` [Compound 250, N-(5-(3-(3H-Imidazo[4,5-b]pyridin-2-yl)-1H-pyrazolo[3,4-c]pyridin-5-yl)pyridin-3-yl)-3,3-dimethylbutanamide], which EC50 [1] is on record?
A: ≥ 9990 nM

Q: What about the IC50 [2] of the same compound?
A: > 10000 nM

Q: What does the source list for `CCCC(=O)Nc1cncc(-c2cc3c(-c4nc5c(-c6ccsc6)ccnc5[nH]4)n[nH]c3cn2)c1` [Compound 277, N-(5-(3-(7-(Thiophen-3-yl)-3H-imidazo[4,5-b]pyridin-2-yl) 1H-pyrazolo[3,4-c]pyridin-5-yl)pyridin-3-yl)butyramide]?
A: EC50 [1]: 158 nM; IC50 [2]: 24.9 nM

Q: What does the source list for `CC(C)Nc1cncc(-c2cc3c(-c4nc5c(-c6ccoc6)ccnc5[nH]4)n[nH]c3cn2)c1` [Compound 298, 5-(3-(7-(Furan-3-yl)-3H-imidazo[4,5-b]pyridin-2-yl)-1H-pyrazolo[3,4-c]pyridin-5-yl)-N-isopropylpyridin-3-amine]?
A: EC50 [1]: 472 nM; IC50 [2]: 46.8 nM

Q: Which EC50 [1] does the source give for `CC(=O)c1ccc(-c2ccnc3[nH]c(-c4n[nH]c5cnc(-c6cncc(NC(=O)C7CCCCC7)c6)cc45)nc23)s1` [Compound 412, N-(5-(3-(7-(5-Acetylthiophen-2-yl)-3H-imidazo[4,5-b]pyridin-2-yl)-1H-pyrazolo[3,4-c]pyridin-5-yl)pyridin-3-yl)cyclohexanecarboxamide] here?
A: ≥ 9990 nM

Q: And the IC50 [2]?
A: > 10000 nM

Q: With `CC(C)(C)C(=O)Nc1cncc(-c2cc3c(-c4nc5c(-c6cccc(F)c6)ccnc5[nH]4)n[nH]c3cn2)c1` [Compound 8, N-(5-(3-(7-(3-Fluorophenyl)-3H-imidazo[4,5-b]pyridin-2-yl)-1H-pyrazolo[3,4-c]pyridin-5-yl)pyridin-3-yl)pivalamide] as the compound, how does the EC50 [1] read?
A: 75 nM

Q: And the IC50 [2]?
A: 155 nM

Q: `CC(C)(C)C(=O)Nc1cncc(-c2cc3c(-c4nc5c(-c6cccs6)ccnc5[nH]4)n[nH]c3cn2)c1` [Compound 320] was tested. Which EC50 [1] did it give?
A: 25 nM

Q: What about the IC50 [2] of the same compound?
A: 42.6 nM

Q: `Fc1cccc(-c2ccnc3[nH]c(-c4n[nH]c5cnc(-c6cn[nH]c6)cc45)nc23)c1` [Compound 939, 3-(7-(3-Fluorophenyl)-3H-imidazo[4,5-b]pyridin-2-yl)-5-(1H-pyrazol-4-yl)-1H-pyrazolo[3,4-c]pyridine] was tested. Which EC50 [1] did it give?
A: 14 nM

Q: And the IC50 [2]?
A: 198 nM

Q: Which EC50 [1] does the source give for `CC(C)(C)C(=O)Nc1cncc(-c2cc3c(-c4nc5c(N6CCCCC6)ccnc5[nH]4)n[nH]c3cn2)c1` [Compound 164, N-(5-(3-(7-(Piperidin-1-yl)-3H-imidazo[4,5-b]pyridin-2-yl)-1H-pyrazolo[3,4-c]pyridin-5-yl)pyridin-3-yl)pivalamide] here?
A: ≤ 9 nM

Q: And the IC50 [2]?
A: 84.4 nM

Q: `FC1(F)CCN(Cc2cncc(-c3cc4c(-c5nc6c(-c7cccs7)ccnc6[nH]5)n[nH]c4cn3)c2)C1` [Compound 337] was tested. Which EC50 [1] did it give?
A: 114 nM

Q: And the IC50 [2]?
A: 24.8 nM

Q: Which EC50 [1] does the source give for `c1ccc(-c2ccnc3[nH]c(-c4n[nH]c5cnc(-c6cncc(CNCC7CCCC7)c6)cc45)nc23)nc1` [Compound 154, 1-Cyclopentyl-N-((5-(3-(7-(pyridin-2-yl)-3H-imidazo[4,5-b]pyridin-2-yl)-1H-pyrazolo[3,4-c]pyridin-5-yl)pyridin-3-yl)methyl)methanamine] here?
A: 596 nM

Q: And the IC50 [2]?
A: 464 nM
